Data taken from patent US4031239A, “Cyclopropanecarboxylates for systemic control of ectoparasites” (American Cyanamid Company, priority 1975, dated 1977).

Columns and labels:
Stomoxys calcitrans = assay: Animal systemic insecticidal activity, flies fed on mice dosed by gavage (Example 3); type: in vivo, Stomoxys calcitrans (stable flies) fed on mice; conditions: 18 hours feeding, mortality at 24 hours
Experimental: To determine the effectiveness of the compounds of the invention as animal systemic insecticidal agents, test compounds are mixed in 10% acetone-90% sesame oil and administered by gavage to mice each at 25, 100 and/or 400 mg/kg of animal body weight.
Adult, one day old, unfed flies Stomoxys calcitrans are then exposed to the mice for 18 hours to permit them to feed on said mice. Mortality counts are made at 24 hours and data obtained are reported below as percent control of stable flies.

Rhipicephalus sanguineus = assay: Systemic ixodicidal activity, daily oral dosing of tick-infested guinea pigs (Example 1); type: in vivo
Text: (§1) Albino guinea pigs are housed individually and fed guinea pig chow and water ad libitum. One leaf of cabbage per day is also given to each guinea pig.
The diet employed in these tests is as follows:
Crude protein not less than 18.0%
Crude fat not less than 4.0%
Crude fiber not more than 16.0%
Added minerals not more than 3.5%
and consists of the following ingredients: Ground wheat, ground yellow corn, dried skimmed milk, soybean meal, dehydrated alfalfa meal, cane molasses, wheat middlings, animal fat preserved with BHA, vitamin B12 supplement; riboflavin supplement, cholin chloride, calcium pantothenate, thiamin, niacin, folic acid, ascorbic acid, vitamin A supplement, D activated sterol (source of Vitamin D3), methionine hydroxy analogue calcium, pyridoxine hydrochloride, vitamin E supplement, dicalcium phosphate, calcium carbonate, iodized salt, copper oxide sulfate, iron sulfate, iron oxide, manganous oxide, cobalt carbonate, zinc oxide.
(§2) To the shaved back of each guinea pig, a capsule made from a 2 inch spud gasket, with the base ground down to provide greater flexibility, is glued using 3M adhesive no. 8001. Five male and five female adult Rhipicephalus sanguineus ticks are placed inside the capsule and allowed to attach to the guinea pig. A gauze material is fastened over the top of the gasket to prevent the ticks from escaping.
(§3) The guinea pigs are given a daily oral dose by gelatin capsule of either 400 or 100 mg per kilogram body weight of the test compound. […]

Dermacentor variabilis = assay: Systemic ixodicidal activity, daily oral dosing of tick-infested guinea pigs (Example 2); type: in vivo
[1] = test system: Rhipicephalus sanguineus; Dermacentor variabilis; assay: Systemic ixodicidal activity by the methods of the Examples, stated for both tick species together; type: in vivo; conditions: trans and cis; no figures given
Text: as §1, §2, §3

[2] = Rhipicephalus sanguineus, in Cavia porcellus, po, read-out: % Tick Mortality

Row | SMILES | % Control of Stable Flies (Stomoxys calcitrans; 25 mg/kg by gavage) | % Control of Stable Flies (Stomoxys calcitrans; 100 mg/kg by gavage) | % Control of Stable Flies (Stomoxys calcitrans; 400 mg/kg by gavage) | further results
1 | CC1(C)C(C=C(Cl)Cl)C1C(=O)OC(C#N)c1cccc(Oc2ccccc2)c1 (stereo not shown) | 63% | 80% | 96% | 
2 | CC(C)=CC1C(C(=O)OC(C#N)c2cccc(Oc3ccccc3)c2)C1(C)C (stereo not shown) | 30% | 80% | 100% | 
3 | CC1(C)C(C=C(Cl)Cl)C1C(=O)OCc1cccc(Oc2ccccc2)c1 (mixture of isomers) [Cyclopropanecarboxylic acid, 3-(2,2-dichlorovinyl)-2,2-dimethyl-m-phenoxybenzyl ester] |  |  |  | mortality at 100 mg/kg (Rhipicephalus sanguineus; [2]): 80%; mortality at 400 mg/kg (Rhipicephalus sanguineus; [2]): 100%; time after initial treatment during which ticks do not appear to be affected (then moribund and die shortly thereafter) (Rhipicephalus sanguineus; daily oral dose 400 or 100 mg/kg, guinea pigs, slight color changes and some reduction in size excepted): about 3 days
4 | CC1(C)C(C=C(Cl)Cl)C1C(=O)OCc1cccc(Oc2ccccc2)c1 (stereo not shown) [Cyclopropanecarboxylic acid, 3-(2,2-dichlorovinyl)-2,2-dimethyl-, m-phenoxybenzyl ester] |  |  |  | susceptibility of ticks to the test compound (Dermacentor variabilis; Dermacentor variabilis, compared with Example 1 (Rhipicephalus sanguineus)): somewhat less susceptible; mortality at 100 mg/kg (Dermacentor variabilis; Dermacentor variabilis, in Cavia porcellus, daily oral dose 100 mg/kg, guinea pigs): 0%; mortality at 400 mg/kg (Dermacentor variabilis; Dermacentor variabilis, in Cavia porcellus, daily oral dose 400 mg/kg, guinea pigs): 80%; time after which ticks become moribund and die shortly thereafter (Dermacentor variabilis; method of Example 1, daily oral dose, guinea pigs): about 5 days
5 | CC(C)=CC1C(C(=O)OCc2cccc(Oc3ccccc3)c2)C1(C)C (stereo not shown) [cyclopropanecarboxylic acid, 2,2-dimethyl-3-(2-methylpropenyl)-m-phenoxybenzyl ester] |  |  |  | ixodicidal results compared with those in the Examples [1]: Results comparable to those in the Examples
6 | CC1(C)C(C=C(Cl)Cl)C1C(=O)OCc1cccc(Oc2ccccc2)c1 (stereo not shown) [drawing 8] | 36% | 100% |  | 
